The values below come from paper PMC8162347, “Bolaamphiphilic Bis-Dehydropeptide Hydrogels as Potential Drug Release Systems” (Gels, 2021).

The conditions of data set [1]: Cbz-capped dehydrodipeptides; cited from earlier work. As for the experimental part:
Our research group, and others, have reported new dehydropeptides capable of forming hydrogels. The presence of a dehydroamino acid residue imparts increased proteolytic resistance into the hydrogels, as well as different physical properties arising from the decreased structural flexibility of the dehydropeptide chain [13, 14, 15, 16]. In our laboratories, several dehydrodipeptides capped on the N-terminus with naproxen (e.g., Npx-L-Phe-Z-ΔPhe-OH and Npx-L-Trp-Z-ΔPhe-OH) were prepared and tested as hydrogelators, providing hydrogels with critical gelation concentrations (CGCs) of between ... || Figure 1 (A) Our previously studied naproxen- and carboxybenzyl-capped dehydropeptide hydrogelators. (B) Examples of bolaamphiphilic hydrogelators in the literature. (C) Summary of hydrogel properties. (D) Combining the structures of N-capped dehydrohydropeptide gelators and bolaamphiphilic gelators into a single molecule. TEXT PRINTED IN THE PICTURE: (C) a: cgc (wt%): 0.4 (pH: 8.0) | (C) b: cgc (wt%): 0.4 (pH: 6.0) | (C) c: cgc (wt%): 0.1 (pH: 5.0) | (C) d: cgc (wt%): 0.2 (pH: 5.0) | (C) e: cgc (wt%): 2.5 (pH: 2.0) | (C) f: cgc (wt%): 5.0 (pH: 3.3)

The subject of data set [2] is HaCaT cell line (human keratinocytes). Description: MTT assay, cell viability. In kind it is cell-based. To be noted: 24 h, most concentrations tested, independent of concentration. How it is done:
Human keratinocytes cell line HaCaT was from ATCC. Cells were cultured in DMEM supplemented with 10% FBS and 1% penicillin/streptomycin and were incubated at 37 °C, in a humidified atmosphere of 5% CO2.
Cells were seeded in 96-well plates (1.5 × 10^4 cells/well) and left to attach for 24 h. After this period, cells were incubated with different concentrations of the molecules under study for another 24 h. Then, cell viability was evaluated based on the ability of metabolically active cells to convert MTT to formazan over the course of 2 h. Absorbances were measured at 570 nm in a Multiskan GO plate reader (Thermo Fisher Scientific; Waltham, MA, USA) and results were expressed as percentage of the respective control and correspond to the mean ± standard error of the mean (SEM) of at least three independent experiments performed in triplicate. On the other hand, to assess the release of the stable cytosolic enzyme lactate dehydrogenase (LDH) into the media, 24 h after the incubation of the cells with the different concentrations of the molecules under study, 40 µL of culture media were removed to a 96-well plate. LDH released was determined using a CytoTox 96® assay kit (Promega; Madison, WI, USA) according to the manufacturer’s instructions. Then, 1% Triton X-100 was used as positive control to assure cell lysis (30 min). Absorbances were measured at 490 nm in a Multiskan GO plate reader (Thermo Fisher Scientific; Waltham, MA, USA), and results correspond to the fold-increase of absorbance in treated vs. untreated cells of three independent experiments performed in duplicate. Following assessment of the distribution of the results, ANOVA was performed using GraphPad Prism 8.0 (GraphPad Prism Inc., San Diego, CA, USA).
(Tetrazolium dyes change colour on reduction, which living cells bring about.)

A short description of data set [3]: Gelation study, pH trigger with GdL, vial inversion test. The following applies: for Critical Gelation Concentration (cgc): vial inversion test, water, NaOH (1 M) to circa pH 10, then GDL 0.4 wt %. In kind it is physicochemical. The source says: Nonetheless, dimeric dehydropeptides 1–4 could be dissolved in water upon pH adjustment to pH 10–11, which was achieved by addition of NaOH solution (1 M). Gel formation was triggered by a slow pH drop. The pH change was obtained by the aqueous hydrolysis of added D-glucono-δ-lactone (GdL) to D-gluconic acid. […] The CGCs of hydrogels 1–3 were qualitatively assessed by varying the peptide concentrations and conducting vial inversion tests.
Dehydrodipeptides 1, 2 and 3 were weighed into sample vials, water was added, and the suspension was adjusted under magnetic stirring to circa pH 10 (pH meter) by the addition of NaOH (1 M), and D-glucono-δ-lactone (GDL) was added. The solutions were left standing overnight at room temperature (20–25 °C).

A short description of data set [4]: Oscillatory rheology of hydrogels. Format: physicochemical. The following applies: hydrogel at structural equilibrium, frequency sweep 100 to 0.1 Hz, strain 0.01%, 25 °C. The source says:
This is due to the rather small deformation used during this test to allow gel formation without disturbing the build-up of the network structure. In contrast to this, see the data for compounds 1 and 2. A two-step model is often used to describe the nucleation (with rate constant kn) and growth (with rate constant k) of aggregates of peptides:(1) f(t) = G0 + dGρ(e^(1+ρ)kt − 1)/1 + ρe^(1+ρ)kt where ρ = kn/k , G0 is the initial storage modulus of the aggregate-free solution, and dG is the increment in the storage modulus during the kinetics.
After reaching the structural equilibrium established by the reading of constant shear moduli G′ and G″ with time, a frequency-sweep from 100 down to 0.1 Hz was performed with a strain of 0.01% (Figure S6 in Supplementary Information). For hydrogels obtained from compounds 1, 2, and 3, G′ is essentially constant over the frequency domain tested, and it is 10 times larger than G″. Overall, all mechanical spectra are qualitatively similar and reminiscent of the rheological signature of gels, as G′ is higher than G″ for hydrogels of compounds 1–3 (Table 3). ′
After the thermal cycle, gels were submitted to a strain sweep, where the frequency was maintained at 1 Hz. The hydrogels of compounds 2 and 1 break up more easily than hydrogel of compound 3 (Figure 7). […] In summary, and connecting the rheological data to the structural information inferred from both STEM and CD, coil conformers of compound 2 rapidly self-assemble to build a rubber-like (entropic) network, which brings most of the gel elasticity. This is in contrast to the elastically weaker gels of compound 3, which are predominantly made from the networking of fibrils likely formed from beta conformers. Gels of compound 1 show intermediate elasticity, originating from the slower networking of a mixture of coil and beta sheet conformers.
The viscoelastic characterization of hydrogels was performed with a stress-controlled rotational rheometer Anton Paar MCR300 (Anton Paar GmbH, Graz, Austria). Gel-forming solutions were loaded in the shearing geometry (a Couette cell with 1 mL volume and 0.5 mm gap) at 25 °C. The liquid sample was pre-sheared at a shear rate of 5 s^−1 during one minute to homogenize the sample in the shearing geometry. Then, the gelation kinetics was monitored during 10 h by applying a small amplitude (0.001%) oscillatory shear at 1 Hz and recording both storage (G′) and loss (G″) moduli at each second. Then, mechanical spectra were recorded, and gels were submitted to a heating–cooling cycle between 25 and 40 °C at a rate of +/−1 °C/min. Finally, gels were submitted to a strain sweep.

Data set [5] is described as follows: Sustained release assay of model cargo from hydrogels. How it is done: Hydrogels containing cationic, anionic, or zwitterionic model drugs were prepared using the same conditions described in Section 2.2 but with the water component (1 mL) being replaced by a methylene blue solution, methyl orange solution, or ciprofloxacin solution. In a modified version of the method described by Abraham et al., water was carefully layered on top of the hydrogel surface. Then, the percentage release of model drug was recorded versus time, over 6 days, through UV absorption measurements or by HPLC and then subsequently fitted to a standard calibration curve (Figure S10 in Supplementary Information). The experiments were also assessed visually (Figure 9). […] In the studies involving the release of methyl orange, a clearly visible release of the anionic dye into the layered water solution was observed from the three hydrogels after several days (Figure 9B,D,F centre). The results for the release of methyl orange were also confirmed quantitatively by UV absorption measurements. Hydrogelators 1 and 3, which contain a phenylalanine residue, release nearly 60% of the anionic methyl orange cargo, whereas hydrogel 2, containing a tyrosine residue, released more than 90%. […] Ciprofloxacin was included as an overall neutral cargo. In experiments involving hydrogels of compounds 1–3 containing ciprofloxacin, the amount of ciprofloxacin present in the above water layer was determined by HPLC at various time-points. Hydrogelators 1, 2, and 3 release 32%, 58%, and 20% of their ciprofloxacin cargo, respectively (Table 4) (Figure S11 in Supplementary Information). As observed for methyl orange, the hydrogel that releases the greatest amount of ciprofloxacin is the hydrogel obtained from compound 2 (Table 4, Figure S11 in Supplementary Information).
To quantitatively evaluate the drug release from hydrogels 1–3, several mathematical models were tested to see which one fits the tested hydrogels. The Korsmeyer–Peppas model is the preferred model for polymeric systems. Korsmeyer described a simple relationship that described drug release from a polymeric system that includes both the diffusion and erosion of the polymer chain. The following equation describes the Korsmeyer–Peppas model: Mt/M = Kt^n
Hydrogels of 1, 2, and 3 were prepared as described in Section 4.2 to form 1 mL hydrogels containing the same concentration of the hydrogelators described above and the appropriate cargo (methylene blue ([…]), methyl orange (0.2 nM), or ciprofloxacin (0.2 nM)), in a slightly modified version of the procedure described by Abraham et al.. After allowing to stand overnight, 1.5 mL of water was carefully added to the surface of the hydrogels. Aliquots of the layered solution (100 μL) were removed at 1 h, 2 h, 3 h, 4 h, 6 h, 24 h, 72 h, and 6 days from the time the water was initially layered on top of the hydrogel. After removing each aliquot, the volume water was immediately replaced by an equal volume of water. The concentration of methylene blue or methyl orange in each aliquot was determined by measuring the absorbance at λmax of the dye (666 nm for methylene blue and 465 nm for methyl orange) using a microplate reader and then converting the value to percentage release (using a standard calibration curve). The concentration of ciprofloxacin in each aliquot was determined using analytical HPLC, where the integrated peak area was converted to a percentage release (using a standard calibration curve). Each experiment was performed in triplicate, and the mean percentage cargo release was plotted against time.

[6] abbreviates: standing overnight at room temperature (20–25 °C).

As to Cbz-L-Tyr-Z-ΔPhe-OH, the CGC in data set [1] is 0.1%.
As for Cbz-L-Phe-Z-ΔPhe-OH, the CGC in data set [1] is 0.1%.
As to `O=C(O)/C(=C/c1ccccc1)NC(=O)[C@H](Cc1ccc(O)cc1)NC(=O)c1ccc2cc(C(=O)N[C@@H](Cc3ccc(O)cc3)C(=O)N/C(=C\c3ccccc3)C(=O)O)ccc2c1` [Compound 4], the “Apparent loss of cell viability (mitochondrial activity)” value in data set [2] is “around 20%”. The Hydrogel formation result in data set [3] (slow pH drop by GdL hydrolysis from pH 10–11, for 4 several triggers (pH, temperature, solvent exchange), 0.3–0.8 wt %) was “failed to give hydrogels”. The “Critical Gelation Concentration (cgc)” value in data set [3] (overnight at room temperature) and in data set [3] (setting [6]) was “No hydrogel” each time.
For `O=C(O)/C(=C/c1ccccc1)NC(=O)[C@H](Cc1ccccc1)NC(=O)c1ccc2cc(C(=O)N[C@@H](Cc3ccccc3)C(=O)N/C(=C\c3ccccc3)C(=O)O)ccc2c1` [Compound 3], in data set [4], the “G′” value is recorded as 3.7 × 10^2 Pa and the “G″” value is listed as 1.3 × 10^1 Pa. The “Apparent loss of cell viability (mitochondrial activity)” value in data set [2] is “around 20%”. For the same molecule, in data set [5] (ciprofloxacin release profile), the “K, release rate constant, Korsmeyer–Peppas model” value was found to be 0.0001 and the “n, release exponent, Korsmeyer–Peppas model” value was found to be 0.6300. Moreover, in data set [5] (methyl orange release profile), the “K, release rate constant, Korsmeyer–Peppas model” value is 0.0400 and the “n, release exponent, Korsmeyer–Peppas model” value was 0.3300. The “pH (gelation conditions)” value in data set [3] (pH of hydrogel at cgc after GDL 0.4 wt %) stood at 5.30. In addition, the “Critical Gelation Concentration (cgc)” value in data set [3] (overnight at room temperature) turned out to be 3.7 mM. In data set [3] (setting [6]), the “Critical Gelation Concentration (cgc)” value is recorded as 0.3 wt %.
